Measurements from patent US7687643B2, “Process for preparing 3,3-dimethylindolines” (Amgen Inc., priority 2001, dated 2010).

These compounds were tested on Human Umbilical Vein Endothelial cells (VEGF-stimulated) (assay: HUVEC proliferation assay, VEGF-stimulated). Conditions: VEGF 50 ng/mL, 72 h, CyQuant, read-out: inhibited VEGF-stimulated HUVEC proliferation at a level.
Type: cell-based
Experimental: Human Umbilical Vein Endothelial cells are purchased from Clonetics, Inc., as cryopreserved cells harvested from a pool of donors. These cells, at passage 1, are thawed and expanded in EBM-2 complete medium, until passage 2 or 3. The cells are trypsinized, washed in DMEM+10% FBS+antibiotics, and spun at 1000 rpm for 10 min. Prior to centrifugation of the cells, a small amount is collected for a cell count. After centrifugation, the medium is discarded, and the cells are resuspended in the appropriate volume of DMEM+10% FBS+antibiotics to achieve a concentration of 3×10^5 cells/mL. Another cell count is performed to confirm the cell concentration. The cells are diluted to 3×10^4 cells/mL in DMEM+10% FBS+antibiotics, and 100 μL of cells are added to a 96-well plate. The cells are incubated at 37° C. for 22 h.
Prior to the completion of the incubation period, compound dilutions are prepared. Five-point, five-fold serial dilutions are prepared in DMSO, at concentrations 400-fold greater than the final concentrations desired. 2.5 μL of each compound dilution are diluted further in a total of 1 mL DMEM+10% FBS+antibiotics (400× dilution). Medium containing 0.25% DMSO is also prepared for the 0 μM compound sample. At the 22-hour timepoint, the medium is removed from the cells, and 100 μL of each compound dilution is added. The cells are incubated at 37° C. for 2-3 h.
During the compound pre-incubation period, the growth factors are diluted to the appropriate concentrations. Solutions of DMEM+10% FBS+antibiotics, containing either VEGF or bFGF at the following concentrations: 50, 10, 2, 0.4, 0.08, and 0 ng/mL are prepared. For the compound-treated cells, solutions of VEGF at 550 ng/mL or bFGF at 220 ng/mL for 50 ng/mL or 20 ng/mL final concentrations, respectively, are prepared since 10 μL of each will be added to the cells (110 μL final volume). At the appropriate time after adding the compounds, the growth factors are added. VEGF is added to one set of plates, while bFGF is added to another set of plates. For the growth factor control curves, the media on wells B4-G6 of plates 1 and 2 are replaced with media containing VEGF or bFGF at the varying concentrations (50-0 ng/mL). The cells are incubated at 37° C. for an additional 72 h.
At the completion of the 72 h incubation period, the medium is removed, and the cells are washed twice with PBS. After the second wash with PBS, the plates are tapped gently to remove excess PBS, and the cells are placed at −70° C. for at least 30 min. The cells are thawed and analyzed using the CyQuant fluorescent dye (Molecular Probes C-7026), following the manufacturer's recommendations. The plates are read on a Victor/Wallac 1420 workstation at 485 nm/530 nm (excitation/emission). Raw data are collected and analyzed using a 4-parameter fit equation in XLFit. IC50 values are then determined.
`COc1nccc(CNc2ncccc2C(=O)Nc2cc(OC[C@@H]3CCCN3C)cc(C(F)(F)F)c2)n1` [Example 1047, 2-(((2-(methyloxy)-4-pyrimidinyl)methyl)amino)-N-(3-((((2S)-1-methyl-2-pyrrolidinyl)methyl)oxy)-5-(trifluoromethyl)phenyl)-3-pyridinecarboxamide] showed an IC50 of less than 50 nM.
`CNc1nccc(CNc2ncccc2C(=O)Nc2ccc3c(c2)CN(C)CC3(C)C)n1` [Example 1041, 2-(((2-(methylamino)-4-pyrimidinyl)methyl)amino)-N-(2,4,4-trimethyl-1,2,3,4-tetrahydro-7-isoquinolinyl)-3-pyridinecarboxamide] showed an IC50 of less than 50 nM.
`CNc1nccc(CNc2ncccc2C(=O)Nc2ccc3c(c2)NC(=O)C3(C(F)(F)F)C(F)(F)F)n1` [Example 1036, 2-(((2-(Methylamino)-4-pyrimidinyl)methyl)amino)-N-(2-oxo-3,3-bis(trifluoromethyl)-2,3-dihydro-1H-indol-6-yl)-3-pyridinecarboxamide] showed an IC50 of less than 50 nM.
For `CNc1nccc(CNc2ncccc2C(=O)Nc2ccc(C(F)(F)F)c(OCCNS(C)(=O)=O)c2)n1` [Example 1033, 2-(((2-(Methylamino)-4-pyrirnidinyl)methyl)amino)-N-(3-((2-((methylsulfonyl)amino)ethyl)oxy)-4-(trifluoromethyl)phenyl)-3-pyridinecarboxamide], the IC50 was less than 50 nM.
Work on `CN1CCC(COc2cc(NC(=O)c3cccnc3NCc3ccncc3)ccc2C(F)(F)C(F)(F)F)CC1` [Example 954, N-[3-(1-Methyl-piperidin-4-ylmethoxy)-4-pentafluoroethyl-phenyl]-2-[(pyridin-4-ylmethyl)-amino]-nicotinamide] yielded an IC50 of less than 50 nM.
`COc1cc(CNc2ncccc2C(=O)Nc2ccc3c(c2)CNCC3(C)C)ccn1` [Example 1177, N-(4,4-Dimethyl-1,2,3,4-tetrahydro-isoquinolin-7-yl)-2-[(2-methoxy-pyridin-4-ylmethyl)-amino]-nicotinamide] was tested, and the IC50 was less than 50 nM.
`CC(C)(C)c1ccc(NC(=O)c2cccnc2NCc2ccc3c(c2)CCO3)cc1` [Example 826, N-[4-(tert-Butyl)phenyl]{2-[(2,3-dihydrobenzo[b]furan-5-ylmethyl)amino](3-pyridyl)}carboxamide] showed an IC50 of less than 50 nM.
In the case of `CNc1nccc(CNc2ncccc2C(=O)Nc2ccc(C(C)(C)C)c(NC(=O)CN(C)C)c2)n1` [Example 1077, N-(4-(1,1-dimethylethyl)-3-((N,N-dimethylglycyl)amino)phenyl)-2-(((2-(methylamino)-4-pyrimidinyl)methyl)amino)-3-pyridinecarboxamide], the IC50 is reported as less than 50 nM.
`CNc1cc(CNc2ncccc2C(=O)Nc2cc(OC[C@@H]3CCCN3C)cc(C(F)(F)F)c2)ccn1` [Example 1143, 2-[(2-Methylamino-pyridin-4-ylmethyl)-amino]-N-[3-(1-methyl-pyrrolidin-2-ylmethoxy)-5-trifluoromethyl-phenyl]-nicotinamide] showed an IC50 of less than 50 nM.
Compound `CC1(C)CNc2cc(NC(=O)c3cccnc3NCc3ccncn3)ccc21` [Example 1029, N-(3,3-Dimethyl-2,3-dihydro-1H-indol-6-yl)-2-((4-pyrimidinylmethyl)amino)-3-pyridinecarboxamide] has an IC50 of less than 50 nM.
`CC1(C)CNC(=O)c2cc(NC(=O)c3cccnc3NCc3ccncc3)ccc21` [Example 946, N-(4,4-Dimethyl-1-oxo-1,2,3,4-tetrahydro-isoquinolin-7-yl)-2-[(pyridin-4-ylmethyl)-amino]-nicotinamide] was tested, and the IC50 was less than 50 nM.
Compound `CNc1cc(CNc2ncccc2C(=O)Nc2ccc3c(c2)NCCC3(C)C)ccn1` [Example 1194] has an IC50 of less than 50 nM.
For `CC(=O)N1CC(C)(C)Oc2ccc(NC(=O)c3cccnc3NCc3ccncc3)cc21` [Example 943, N-(4-Acetyl-2,2-dimethyl-3,4-dihydro-2H-benzo[1,4]oxazin-6-yl)-2-[(pyridin-4-ylmethyl)-amino]-nicotinamide], the IC50 was less than 50 nM.
`COc1nccc(CNc2ncccc2C(=O)Nc2ccc3c(c2)N(C(C)=O)CC3(C)C)n1` [Example 1046, N-(1-acetyl-3,3-dimethyl-2,3-dihydro-1H-indol-6-yl)-2-(((2-(methyloxy)-4-pyrimidinyl)methyl)amino)-3-pyridinecarboxamide] showed an IC50 of less than 50 nM.
Work on `O=C(Nc1ccc(C(F)(F)C(F)(F)F)c(OCCN2CCCCC2)c1)c1cccnc1NCc1ccncc1` [Example 955, N-[4-Pentafluoroethyl-3-(2-piperidin-1-yl-ethoxy)-phenyl]-2-[(pyridin-4-ylmethyl)-amino]-nicotinamide] yielded an IC50 of less than 50 nM.
In the case of `O=C(Nc1cccc(C(F)(F)F)c1)c1ccc(F)nc1NCc1ccncc1` [Example 156, {6-Fluoro-2-[(4-pyridylmethyl)amino](3-pyridyl)}-N-[3-(trifluoromethyl)phenyl]carboxamide], the IC50 is reported as less than 50 nM.
In the case of `CNc1cc(CNc2ncccc2C(=O)Nc2ccc3c(c2)N(S(C)(=O)=O)CC3(C)C)ccn1` [Example 1058, N-(3,3-dimethyl-1-(methylsulfonyl)-2,3-dihydro-1H-indol-6-yl)-2-(((2-(methylamino)-4-pyridinyl)methyl)amino)-3-pyridinecarboxamide], the IC50 is reported as less than 50 nM.
`O=C(Nc1cc(CCCN2CCCCC2)cc(C(F)(F)F)c1)c1cccnc1NCc1ccncc1` [Example 963, N-[3-(3-Piperidin-1-yl-propyl)-5-trifluoromethyl-phenyl]-2-[(pyridin-4-ylmethyl)-amino]-nicotinamide] showed an IC50 of less than 50 nM.
In the case of `COc1cc(CNc2ncccc2C(=O)Nc2ccc(C(C)(C)C)c(OC[C@@H]3CCCN3)c2)ccn1` [Example 1067, N-(4-(1,1-dimethylethyl)-3-(((2S)-2-pyrrolidinylmethyl)oxy)phenyl)-2-(((2-(methyloxy)-4-pyridinyl)methyl)amino)-3-pyridinecarboxamide], the IC50 is reported as less than 50 nM.
With `O=C(Nc1ccc(C(F)(F)C(F)(F)F)c(OC[C@@H](O)CN2CCCC2)c1)c1cccnc1NCc1ccncc1` [Example 952, (S) N-[3-(2-Hydroxy-3-pyrrolidin-1-yl-propoxy)-4-pentafluoroethyl-phenyl]-2-[(pyridin-4-ylmethyl)-amino]-nicotinamide] the IC50 was less than 50 nM.
`CNc1cc(CNc2ncccc2C(=O)Nc2cc(Cl)cc(NC(=O)CN(C)C)c2)ccn1` [Example 1149, N-[3-Chloro-5-(2-dimethylamino-acetylamino)-phenyl]-2-[(2-methylamino-pyridin-4-ylmethyl)-amino]-nicotinamide] gave an IC50 of less than 50 nM.
`CN1CCC(C(C)(C)c2ccc(NC(=O)c3cccnc3NCc3ccnc4ccccc34)cc2)CC1` [Example 1028, N-(4-(1-Methyl-1-(1-methyl-4-piperidinyl)ethyl)phenyl)-2-((4-quinolinylmethyl)amino)-3-pyridinecarboxamide] gave an IC50 of less than 50 nM.
`CNc1cc(CNc2ncccc2C(=O)Nc2ccc3c(c2)N(C(C)=O)CC3(C)C)ccn1` [Example 1103, N-(1-Acetyl-3,3-dimethyl-2,3-dihydro-1H-indol-6-yl)-2-[(2-methylamino-pyridin-4-ylmethyl)-amino]-nicotinamide] was tested, and the IC50 was less than 50 nM.
`CC1(C)CNc2cc(NC(=O)c3cccnc3NCc3ccncc3)ccc2O1` [Example 995, N-(2,2-Dimethyl-3,4-dihydro-2H-benzo[1,4]oxazin-6-yl)-2-[(pyridin-4-ylmethyl)-amino]-nicotinamide] was tested, and the IC50 was less than 50 nM.
`CNc1cc(CNc2ncccc2C(=O)Nc2cc(O[C@@H]3CCOC3)cc(C(F)(F)F)c2)ccn1` [Example 1083, 2-(((2-(methylamino)-4-pyridinyl)methyl)amino)-N-(3-((3R)-tetrahydro-3-furanyloxy)-5-(trifluoromethyl)phenyl)-3-pyridinecarboxamide] gave an IC50 of less than 50 nM.
`CC1(C)CC(=O)Nc2cc(NC(=O)c3cccnc3NCc3ccncc3)ccc21` [Example 1114, N-(4,4-Dimethyl-2-oxo-1,2,3,4-tetrahydro-quinolin-7-yl)-2-[(pyridin-4-ylmethyl)-amino]-nicotinamide] gave an IC50 of less than 50 nM.
`COc1cc(CNc2ncccc2C(=O)Nc2ccc(C(C)C)cc2)ccn1` [Example 140, (2-{[(2-Methoxy(4-pyridyl))methyl]amino}(3-pyridyl))-N-[4-(methylethyl)phenyl]carboxamide] was tested, and the IC50 was less than 50 nM.
In the case of `CC1(C)CNCc2cc(NC(=O)c3cccnc3NCc3ccnc(N)c3)ccc21` [Example 1168, 2-(((2-Amino-4-pyridinyl)methyl)amino)-N-(4,4-dimethyl-1,2,3,4-tetrahydro-7-isoquinolinyl)-3-pyridinecarboxamide], the IC50 is reported as less than 50 nM.
